Source: patent publication US5854252A, “Dihalotriazolopyrimidine derivatives” (Shell Internationale Research Maatschappij B.V., priority 1993, dated 1998)
Converted amounts (≈) assume the structure as drawn. Blank lines part the entries; values can stand above or below the compound they belong to.

Assays:
[1] = test system: Alternaria solani; assay: MIC by serial dilution, Example 55, Alternaria solani; format: cell-based; conditions: microtitre plates, 20° C., 6-8 days
Description: (§1) The MIC (Minimum Inhibition Concentration)-values were determined by serial dilution tests using 48-well microtitre plates. The dilution of the test compounds in the nutrient solution and the distribution to the wells were carried out by a TECAN RSP 5000 robotic sample processor.
(§2) For preparation of the nutrient solution, V8 juice (Trade Mark) was neutralised with calcium carbonate and centrifuged. The supernatant was diluted with distilled water (1:5) to the final concentration.
(§3) The fungi (Alternaria solani, Botrytis cinerea, Pseudocercosporella herpotrichoides, Micronectriella nivalis, Gaeumannomyces graminis) were added into the wells as a droplet of spore suspension. The microtitre plates were then incubated at 20° C. for 6-8 days. The MIC-value, which was defined to be the lowest concentration in the dilution series without mycelial growth, was determined by visual inspection of the plates.

[2] = test system: Botrytis cinerea; assay: MIC by serial dilution, Example 55, Botrytis cinerea; format: cell-based; conditions: microtitre plates, 20° C., 6-8 days
Description: as §1, §2, §3

[3] = test system: Alternaria solani; assay: MIC in the serial dilution test, Example 56, Alternaria solani; format: cell-based; conditions: microtiter serial dilution, 6-12 days
Description: (§4) The serial dilution test was carried out using Microtiter test with 24 or 48 wells per plate. The test compounds were used a 1000 μg/ml aqueous stock suspension containing 20% acetone which was then sterile filtered in a 0.2μ filter. The dilution of the sterile fungicide suspension with the nutrient solution and the subsequent pipetting into the different wells was carried out using a TECAN RSP 5000 Robotic Sample Processor. The concentrations tested ranged from 100 μg/ml down to 0.05 μg/ml. 12 Dilution steps were made. The nutrient solution was chosen according to the nutrient requirements of the pathogen. The inoculum was added as a droplet (50 μl) of a spore suspension (5×10^8 /ml) into the wells. After 6-12 days incubation at suitable temperatures, the MIC value was determined by visual estimation. The lowest concentration in the dilution row without mycelial growth was defined as the MIC value.

[4] = test system: Botrytis cinerea; assay: MIC in the serial dilution test, Example 56, Botrytis cinerea; format: cell-based; conditions: microtiter serial dilution, 6-12 days
Description: as §4

[5] = test system: Rhizoctonia solani; assay: MIC in the serial dilution test, Example 56, Rhizoctonia solani; format: cell-based; conditions: microtiter serial dilution, 6-12 days
Description: as §4

[6] = test system: Pseudocercosporella herpotrichoides; assay: Activity against wheat eyespot in-vitro (PHI), Example 53(j); format: cell-based; conditions: 50 ppm, 12 days at 20° C.
Description: This test measures the in vitro activity of compounds against the fungus causing wheat eyespot. The test compound is dissolved or suspended in acetone and is added into 4 ml aliquots of half strength Potato Dextrose Broth dispensed in 25-compartment petri dishes to give a final concentration of 50 ppm compound and 2.5% acetone. Each compartment is inoculated with a 6 mm diameter plug of agar/mycelium taken from a 14 day old culture of P. herpotrichoides. Plates are incubated at 20° C. for 12 days until the assessment of mycelial growth. The extent of disease control in all the above tests is expressed as a rating compared with either an untreated control or a diluent-sprayed-control, according to the criteria: […]

[7] = test system: Leptosphaeria nodorum; assay: Activity against wheat leafspot (LN), Example 53(f); format: in vivo; conditions: therapeutic foliar spray, 1000 ppm
Description: The test is a direct therapeutic one, using a foliar spray. Leaves of wheat plants (cv Norman), at the single leaf stage, are inoculated by spraying with an aqueous suspension containing 1×10^6 spores/ml. The inoculated plants are kept for 24 hours in a high humidity compartment prior to treatment. The plants are sprayed with a solution of the test compound at a dosage of 1000 ppm using an automated sprayline as described under (a). After drying, the plants are kept for 6-8 days at 22° C. and moderate humidity, followed by assessment. Assessment is based on the density of lesions per leaf compared with that on leaves of control plants. The extent of disease control in all the above tests is expressed as a rating compared with either an untreated control or a diluent-sprayed-control, according to the criteria: […]

[8] = test system: Pseudocercosporella herpotrichoides; assay: MIC by serial dilution, Example 55, Pseudocercosporella herpotrichoides; format: cell-based; conditions: Oculimacula yallundae; microtitre plates, 20° C., 6-8 days
Description: as §1, §2, §3

[9] = test system: Micronectriella nivalis; assay: MIC by serial dilution, Example 55, Micronectriella nivalis; format: cell-based; conditions: microtitre plates, 20° C., 6-8 days
Description: as §1, §2, §3

[10] = test system: Gaeumannomyces graminis; assay: MIC by serial dilution, Example 55, Gaeumannomyces graminis; format: cell-based; conditions: microtitre plates, 20° C., 6-8 days
Description: as §1, §2, §3

[11] = test system: Puccinia arachidis; assay: Field pot test with Puccinia arachidis on peanuts; format: in vivo; conditions: topical, 456 h, 500 μg/ml spray, 1000 l/ha, 19 days after treatment, Abbott formula, read-out: % efficacy Puccinia arachidis
Description: 15 seeds of peanuts were sown in pots filled with a soil substrate. When the plants have developed 4 true leaves the fungicides and the test compounds were applied using a hand sprayer. The test compounds were applied at a concentration of 500 μg/ml in a […] containing 10% acetone and 0.05% Triton X 155 in water. The total amount of […] corresponded to 1000 l/ha. Six replicates per treatment were used. 2 Days after treatment the pots were exposed to peanut plants in the field on which the fungus, Puccinia arachidis, had formed sporulating pustules on the leaves. The assessment was carried out 19 days after treatment by estimating the percentage of infected leaf area. The % efficacy was calculated using the Abbott formula.

[12] = test system: Cercospora arachidicola; assay: Field pot test with Cercospora arachidicola on peanuts; format: in vivo; conditions: Mycosphaerella arachidis, topical, 360 h, 500 μg/ml spray, 1000 l/ha, 15 days after treatment, Abbott formula, read-out: % efficacy Cercospora arachidicola
Description: 15 Seeds of peanuts were sown in pots filled with a soil substrate. When the plants have developed 4 true leaves (approx. 12-14 days after seeding) the fungicides and the test compounds were applied using a hand sprayer. The test compounds were applied at a concentration of 500 μg/ml in a […] containing 10% acetone and 0.05% Triton X 155 in water. The total amount of […] corresponded to 1000 l/ha. Six replicates (pots) per treatment were used. 2 days after treatment the pots were exposed to peanut plants in the field on which the fungus, Cercospora arachidicola, had formed sporulating lesions. The assessment was carried out 15 days after treatment by estimating the percentage of infected leaf area. The % efficacy was calculated using the Abbott formula.

- MIC [1]: 50 µg/mL (≈ 123 µM)
- MIC [2]: 25 µg/mL (≈ 61.5 µM)
SMILES: Fc1cccc(Cl)c1-c1c(Br)nc2ncnn2c1Br [Example 41]

- MIC [3]: 25 µg/mL (≈ 84.7 µM)
- MIC [4]: 6.25 µg/mL (≈ 21.2 µM)
- MIC [5]: > 100 µg/mL
SMILES: Cc1cccc(Oc2c(Cl)nc3ncnn3c2Cl)c1 [Example 49]

SMILES: COc1cccc(-c2c(Cl)nc3ncnn3c2Cl)c1OC [Example 21]
- Fungicidal Activity PHI (disease control rating) [6]: 2 (greater than 80% disease control)

- MIC [3]: 12.5 µg/mL (≈ 53.6 µM)
- MIC [4]: 25 µg/mL (≈ 107 µM)
- MIC [5]: 100 µg/mL (≈ 429 µM)
SMILES: CCOc1c(Cl)nc2ncnn2c1Cl [Example 50]

SMILES: Clc1nc2ncnn2c(Cl)c1-c1ccc(OCc2ccccc2)cc1 [Example 15]
- Fungicidal Activity LN (disease control rating) [7]: 1 (about 50-80% disease control)

- MIC [8]: 12.5 µg/mL (≈ 36.3 µM)
- MIC [9]: 6.25 µg/mL (≈ 18.2 µM)
- MIC [10]: 0.1 µg/mL (≈ 0.291 µM)
SMILES: Clc1nc2ncnn2c(Cl)c1-c1ccc(Br)cc1 [Example 19]
- Fungicidal Activity PHI (disease control rating) [6]: 2 (greater than 80% disease control)

SMILES: Clc1ccc(-c2c(Cl)nc3ncnn3c2Cl)cc1Cl [Example 25]
- Fungicidal Activity LN (disease control rating) [7]: 1 (about 50-80% disease control)
- pest or weed control at 500 µg/mL [11]: 42%
- pest or weed control at 500 µg/mL [12]: 25%

- MIC [2]: > 100 µg/mL
SMILES: O=S(=O)(Cl)c1ccccc1-c1c(Cl)nc2ncnn2c1Cl [Example 6]

SMILES: Clc1nc2ncnn2c(Cl)c1-c1ccc(Oc2ccccc2)cc1 [Example 12]
- pest or weed control at 500 µg/mL [11]: 33%
- pest or weed control at 500 µg/mL [12]: 67%

SMILES: Fc1ccccc1-c1c(Cl)nc2ncnn2c1Cl [Example 16]
- Fungicidal Activity PHI (disease control rating) [6]: 2 (greater than 80% disease control)
- pest or weed control at 500 µg/mL [11]: 42%
- pest or weed control at 500 µg/mL [12]: 50%

SMILES: COc1ccc(-c2c(Cl)nc3ncnn3c2Cl)cc1 [Example 38]
- pest or weed control at 500 µg/mL [11]: 42%
- pest or weed control at 500 µg/mL [12]: 42%

- MIC [8]: 25 µg/mL (≈ 83.5 µM)
- MIC [9]: 1.56 µg/mL (≈ 5.21 µM)
- MIC [10]: 3.13 µg/mL (≈ 10.4 µM)
SMILES: Clc1ccccc1-c1c(Cl)nc2ncnn2c1Cl [Example 1, 5,7-dichloro-6-(2-chlorophenyl)-1,2,4-triazolo-[1,5a]pyrimidine]
- Fungicidal Activity PHI (disease control rating) [6]: 2 (greater than 80% disease control)

SMILES: FC(F)(F)c1cccc(-c2c(Cl)nc3ncnn3c2Cl)c1 [Example 7]
- Fungicidal Activity PHI (disease control rating) [6]: 2 (greater than 80% disease control)
- pest or weed control at 500 µg/mL [11]: 25%
- pest or weed control at 500 µg/mL [12]: 58%

- MIC [8]: 3.13 µg/mL (≈ 9.74 µM)
- MIC [9]: 0.39 µg/mL (≈ 1.21 µM)
- MIC [10]: 0.78 µg/mL (≈ 2.43 µM)
SMILES: CC(C)(C)c1ccc(-c2c(Cl)nc3ncnn3c2Cl)cc1 [Example 36]

SMILES: Clc1nc2ncnn2c(Cl)c1-c1ccc2ccccc2c1 [Example 10]
- Fungicidal Activity PHI (disease control rating) [6]: 2 (greater than 80% disease control)

SMILES: Clc1nc2ncnn2c(Cl)c1-c1ccccc1Br [Example 18]
- Fungicidal Activity PHI (disease control rating) [6]: 2 (greater than 80% disease control)
